Experimental data: patent US4075332A (priority 1976, dated 1978)
Where two headings read alike, the source gives them in different places.

Columns and labels:
Root-knot nematode = settings: in vivo
bovine cholinesterase = bovine cholinesterase (Bos taurus, UniProt P23795); assay: biochemical; type: biochemical
Southern army worm [1] = settings: in vivo; for Southern Army Worm Mortality, %: southern armyworm
in vivo = settings: rat, po
Mexican bean beetle = assay: whole plant or invertebrate; settings: Epilachna varivestis; for mortality at 50 ppm / mortality at 100 ppm: read-out: Mexican Bean Beetle Larvae Mortality, %
House fly = assay: whole plant or invertebrate; settings: Musca domestica, 48 h; for mortality at 20 ppm: read-out: House Fly Spray Mortality, % (at 20 ppm); for mortality at 250 ppm: read-out: Mortality, % - House Flies
Corn rootworm larvae [2] = assay: whole plant or invertebrate; settings: soil, 120 h, read-out: Corn Rootworm Larvae Mortality, % (at 2.5 ppm)
Spider mites [3] = assay: Mite, Systemic; type: in vivo, two-spotted mite; settings: Tetranychus urticae, read-out: Mortality, % - Spider Mites Systemic
Protocol: (§1) In the insecticidal and miticidal tests, the experimental compounds were tested as aqueous emulsions. These emulsions were prepared by dissolving the compound in acetone and dispersing it in distilled water with Triton X-100, an alkylaryl polyether alcohol derived by the reaction of i-octylphenol with ethylene oxide, to give spray emulsions containing the desired concentrations of the compound. These emulsions were then used in standard laboratory tests described below.
Mite, Systemic: Bean plants infested with the two-spotted mites were treated by applying 20 ml. of the formulated test chemical to the soil.

Bean aphids [4] = assay: Aphid, Systemic; type: in vivo, bean aphid; settings: Aphis fabae, 48 h, read-out: Mortality, % - Bean Aphids Systemic
Protocol: as §1
Aphid, Systemic: Nasturtium plants infested with the bean aphid were treated by applying 20 ml. of the formulated test chemical to the soil. The degree of aphid control was rated after 2 days.

Lone Star Ticks = assay: Animal systemic insecticide test in guinea pigs, lone star tick nymphs; type: in vivo, lone star tick (host: guinea pig); settings: Cavia porcellus, 24 h, Table XI, read-out: Lowest Dosage (mg/kg) Causing Complete Kill of Nymphs of Lone Star Ticks
Protocol: (§2) The experimental compounds, formulated as 5% solutions in Tween 20, were administered orally and subcutaneously to guonea pigs which have been artificially infested with nymphs of the lone star tick at 48 hours before treatment, larvae of the secondary screw worm and of the black blow fly at 24 hours before treatment. Mortality was observed 24 hours after the treatment. For the details of the techniques, reference is made to the publications of R. O. Drummond in the Journal of Economic Entomology, particularly in Vol. 60, pages 733-737 in 1967.

Black Blow Flies = assay: Animal systemic insecticide test in guinea pigs, black blow fly larvae; type: in vivo, black blow fly (host: guinea pig); settings: Calliphoridae, in Cavia porcellus, 24 h, Table XI, read-out: Lowest Dosage (mg/kg) Causing Complete Kill of Larvae of Black Blow Flies
Protocol: as §2

Secondary Screw Worms = assay: Animal systemic insecticide test in guinea pigs, secondary screw worm larvae; type: in vivo, secondary screw worm (host: guinea pig); settings: Cavia porcellus, 24 h, Table XI, read-out: Lowest Dosage (mg/kg) Causing Complete Kill of Larvae of Secondary Screw Worms
Protocol: as §2

Spider mites [5] = settings: two-spotted spider mite, in vivo, 48 h
Bean aphids [6] = settings: bean aphid, in vivo, 48 h
Southern army worm [7] = assay: whole plant or invertebrate; settings: Spodoptera eridania; for mortality at 250 ppm: read-out: Mortality, % - Southern ArmyWorm
Spider mites [8] = assay: whole plant or invertebrate; settings: Tetranychus urticae, 48 h, read-out: Mortality, % - Spider Mites Contact
Bean aphids [9] = assay: whole plant or invertebrate; settings: Aphis fabae, 48 h, read-out: Mortality, % - Bean Aphids Contact
[10] = Thermal stability of products (GC / nmr observation); type: physicochemical; settings: 60° C
From the text: The corresponding primary alkyl derivatives such as the S'-n-propyl compound are stable under similar conditions.
The ethyl sulfinylmethyl product was unstable at room temperature.

[11] = tested on: powdery mildew fungus (Erysiphe Polygoni); assay: Bean Powdery Mildew eradicant test; type: in vivo; settings: Table III; 200 ppm
[12] = tested on: bean rust fungus (Uromyces Phaseoli); assay: Bean Rust eradicant test; type: in vivo; settings: Table III; 200 ppm
Protocol: In these tests, the experimental compounds were tested in aqueous emulsions, prepared in the same manner as was previously described above with respect to the insecticidal and miticidal tests.
Pinto bean plants with fully expanded primary leaves were inoculated with spores of the bean rust fungus (Uromyces Phaseoli) and incubated for 24 hours. The test were then carried out as described above for Bean Powdery Mildew.

[13] = tested on: bean rust fungus (Uromyces Phaseoli); assay: Bean Rust systemic eradicant test; type: in vivo; settings: Table III; 200 ppm
Protocol: Pinto bean plants were inoculated 24 hours prior to use as above and the soil in the pot was then treated with 20 ml. of an emulsion of the test chemical. The rest of the test and the evaluation were then carried out an above for Bean Powdery Mildew.

Sclerotium = Sclerotium soil fungicide test; type: in vivo; settings: Table III; 100 lb/acre
Protocol: Sterilized soil was inoculated with Solerotium and placed into a 4-ounce "Dixie cup", and drenched with 20 ml. of an emulsion of the test chemical. The cup was then incubated for 2 days at 70° F. Thereafter, the amount of mycelial growth on the soil surface was rated and the control by the chemical estimated accordingly.

Corn rootworm larvae [14] = settings: in vivo, 120 h
Corn earworm = assay: Field control of corn earworm (Example 27); type: in vivo; settings: Table XV; 1 lbs/acre; untreated check 45
From the text: Spring Gold sween corn was planted on March 21. Each treatment was made on a 48 ft. row and was replicated three times. Ratings represent the total counts from all three replicates. Except for insecticide treatment the plots were managed according to recommended farming practice for the area. Application of the experimental compositions at the 1 lb. active ingredient per acre were made and readings were made to determine the number of infested corn ears.

[15] = read-out: Mortality, % - Mexican Bean Beetle
[16] = read-out: Mortality, % - Mexican Bean Beetles
[17] = read-out: Mortality of Southern Armyworm, %

Sequence of bovine cholinesterase (P23795-2 with tags, fused parts or gaps limits assumed): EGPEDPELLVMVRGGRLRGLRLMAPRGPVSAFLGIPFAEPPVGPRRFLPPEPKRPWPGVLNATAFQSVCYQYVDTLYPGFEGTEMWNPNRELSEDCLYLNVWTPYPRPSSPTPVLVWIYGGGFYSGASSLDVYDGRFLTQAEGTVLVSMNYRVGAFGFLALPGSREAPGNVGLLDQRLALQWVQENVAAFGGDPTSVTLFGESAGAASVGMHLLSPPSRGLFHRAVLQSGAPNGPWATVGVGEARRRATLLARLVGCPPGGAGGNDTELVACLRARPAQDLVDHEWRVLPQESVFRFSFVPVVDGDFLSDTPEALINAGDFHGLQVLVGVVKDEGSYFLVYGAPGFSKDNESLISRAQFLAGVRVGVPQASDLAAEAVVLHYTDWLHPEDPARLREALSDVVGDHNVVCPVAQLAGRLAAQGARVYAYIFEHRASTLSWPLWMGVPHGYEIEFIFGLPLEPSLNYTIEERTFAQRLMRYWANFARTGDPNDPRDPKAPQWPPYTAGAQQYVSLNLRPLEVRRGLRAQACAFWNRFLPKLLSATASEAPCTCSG

CCOP(=S)(OCC)SCCSCC [Disyston, reference compound]
Nematodes Rate, Control after 1-4 weeks (at 25#/acre) (Root-knot nematode): 0 | IC50 (bovine cholinesterase): 380000 nM | Southern Army Worm Mortality, % (Southern army worm [1]): 0% | LD50 at 336 h (in vivo): 25 mg/kg | mortality at 50 ppm (Mexican bean beetle): 30% | mortality at 20 ppm (House fly): 100% | mortality at 2.5 ppm (Corn rootworm larvae [2]): 0%

CCCSP(=O)(OCC)SCCSC (stereo not shown) [Example 1, O-Ethyl S-1-Propyl S'-2-Methylthioethyl Dithiophosphate]
mortality at 250 ppm (Spider mites [3]): 100% | mortality at 250 ppm (Bean aphids [4]): 95% | Nematode Control,% at 25 lb/acre (Root-knot nematode): 90% | minimal effective dose (Lone Star Ticks; oral): 50 mg/kg | minimal effective dose (Lone Star Ticks; sc, subcutaneous): 50 mg/kg | minimal effective dose (Black Blow Flies; oral): 50 mg/kg | minimal effective dose (Black Blow Flies; sc, subcutaneous): 50 mg/kg | minimal effective dose (Secondary Screw Worms; oral): 50 mg/kg | minimal effective dose (Secondary Screw Worms; sc, subcutaneous): 50 mg/kg | Mortality, % - Southern ArmyWorm (Southern army worm [1]): 100% | Mortality, % - Spider Mites Contact (Spider mites [5]): 100% | Mortality, % - Bean Aphids Contact (Bean aphids [6]): 100% | LD50 at 336 h (in vivo): 46 mg/kg | mortality at 250 ppm (Southern army worm [7]): 100% | mortality at 250 ppm (Mexican bean beetle; [15]): 100% | mortality at 250 ppm (Mexican bean beetle; [16]): 100% | mortality at 250 ppm (Spider mites [8]): 100% | mortality at 250 ppm (Bean aphids [9]): 100% | mortality at 250 ppm (House fly): 100%

CCCSP(=O)(OCC)SCCSc1ccccc1 (stereo not shown) [Example 4, O-Ethyl S-1-Propyl S-2-Phenylthioethyl Dithiophosphate]
mortality at 250 ppm (Spider mites [3]): 40% | mortality at 250 ppm (Bean aphids [4]): 20% | minimal effective dose (Lone Star Ticks; oral): > 100 mg/kg | minimal effective dose (Lone Star Ticks; sc, subcutaneous): > 100 mg/kg | minimal effective dose (Black Blow Flies; oral): > 100 mg/kg | minimal effective dose (Black Blow Flies; sc, subcutaneous): > 100 mg/kg | minimal effective dose (Secondary Screw Worms; oral): > 100 mg/kg | minimal effective dose (Secondary Screw Worms; sc, subcutaneous): > 100 mg/kg | mortality at 250 ppm (Southern army worm [7]): 100% | mortality at 250 ppm (Mexican bean beetle; [16]): 100% | mortality at 250 ppm (Spider mites [8]): 100% | mortality at 250 ppm (Bean aphids [9]): 95% | mortality at 250 ppm (House fly): 95%

CCCSP(=O)(OCC)SCC[S+](C)[O-] (stereo not shown) [Example 6, O-Ethyl S-1-Propyl S'-2-Methylsulfinylethyl Dithiophosphate]
mortality at 250 ppm (Spider mites [3]): 100% | mortality at 250 ppm (Bean aphids [4]): 100% | Nematode Control,% at 25 lb/acre (Root-knot nematode): 100% | minimal effective dose (Lone Star Ticks; oral): 50 mg/kg | minimal effective dose (Lone Star Ticks; sc, subcutaneous): 50 mg/kg | minimal effective dose (Black Blow Flies; oral): 50 mg/kg | minimal effective dose (Black Blow Flies; sc, subcutaneous): 50 mg/kg | minimal effective dose (Secondary Screw Worms; oral): 100 mg/kg | minimal effective dose (Secondary Screw Worms; sc, subcutaneous): 50 mg/kg | LD50 at 336 h (in vivo): 46 mg/kg | mortality at 250 ppm (Southern army worm [7]): 100% | mortality at 250 ppm (Mexican bean beetle; [15]): 100% | mortality at 250 ppm (Spider mites [8]): 100% | mortality at 250 ppm (Bean aphids [9]): 100%

CCCSP(=O)(OCC)SCSCC (stereo not shown) [Example 11, O-Ethyl S-1-Propyl S'-Ethylthiomethyl Dithiophosphate]
Nematodes Rate, Control after 1-4 weeks (at 25#/acre) (Root-knot nematode): 100 | IC50 (bovine cholinesterase): 2700 nM | stability (nmr) [10]: slowly decomposing | Southern Army Worm Mortality, % (Southern army worm [1]): 100% | mortality at 100 ppm (Mexican bean beetle): 100% | mortality at 20 ppm (House fly): 100% | mortality at 2.5 ppm (Corn rootworm larvae [2]): 100%

CCOP(=O)(SCC)SCC(C)SCC (stereo not shown) [Example 29, O,S-Diethyl S'-2-Ethylthiopropyl Dithiophosphate]
Pest Control, % - Nematode Control (25 lb/acre) (Root-knot nematode): 20% | Control of Foliar Fungi, % - Bean Mildew Eradicant [11]: 0% | Control of Foliar Fungi, % - Bean Rust Eradicant [12]: 0% | Control of Foliar Fungi, % - Bean Rust Systemic Eradicant [13]: 0% | Control of Sclerotium, % (Sclerotium): 0% | Pest Control, % - Corn Rootworm (0.25 ppm) (Corn rootworm larvae [14]): 20%

CCCSP(=O)(OCC)SCCSCC (stereo not shown) [Example 30, O-Ethyl 1-Propyl S'-2-Ethylthioethyl Dithiophosphate]
mortality at 250 ppm (Spider mites [3]): 100% | mortality at 250 ppm (Bean aphids [4]): 90% | Nematodes Rate, Control after 1-4 weeks (at 25#/acre) (Root-knot nematode): 100 | IC50 (bovine cholinesterase; read-out: Cholinesterase Inhibiting conc. LD50, Mole/Liter, 30 min): 1100 nM | Southern Army Worm Mortality, % (Southern army worm [1]): 100% | LD50 at 336 h (in vivo): 318 mg/kg | mortality at 50 ppm (Southern army worm [7]; [17]): 80% | mortality at 100 ppm (Southern army worm [7]; [17]): 100% | mortality at 250 ppm (Southern army worm [7]): 100% | mortality at 50 ppm (Mexican bean beetle): 100% | mortality at 250 ppm (Mexican bean beetle; [16]): 100% | mortality at 250 ppm (Spider mites [8]): 100% | mortality at 250 ppm (Bean aphids [9]): 100% | mortality at 20 ppm (House fly): 100% | mortality at 250 ppm (House fly): 100% | mortality at 2.5 ppm (Corn rootworm larvae [2]): 20%

CCCSP(=O)(OCC)SCSc1ccc(Cl)cc1 (stereo not shown) [Example 31, O-Ethyl S-1-Propyl S'-4-Chlorophenyllthiomethyl Dithiophosphate]
Nematodes Rate, Control after 1-4 weeks (at 25#/acre) (Root-knot nematode): 100 | IC50 (bovine cholinesterase): 4.1 nM | Southern Army Worm Mortality, % (Southern army worm [1]): 100% | mortality at 100 ppm (Mexican bean beetle): 100% | mortality at 20 ppm (House fly): 100% | mortality at 2.5 ppm (Corn rootworm larvae [2]): 0%

CCOP(=S)(OCC)SCSCC [Thimet, reference compound]
Nematodes Rate, Control after 1-4 weeks (at 25#/acre) (Root-knot nematode): 0 | IC50 (bovine cholinesterase): 31000 nM | Southern Army Worm Mortality, % (Southern army worm [1]): 0% | mortality at 100 ppm (Mexican bean beetle): 90% | mortality at 20 ppm (House fly): 90% | mortality at 2.5 ppm (Corn rootworm larvae [2]): 100%

CCCSP(=O)(OCC)SCCSC (stereo not shown) [drawing 55]
Number of Infested Corn Ears (150 Ears Sampled) (Corn earworm): 2

CCCSP(=O)(OCC)SCC[S+](C)[O-] (stereo not shown) [drawing 56]
Number of Infested Corn Ears (150 Ears Sampled) (Corn earworm): 0

CCCSP(=O)(OCC)SCC(C)SC (stereo not shown) [drawing 57]
Number of Infested Corn Ears (150 Ears Sampled) (Corn earworm): 4
